Assay results taken from patent US10633379B2, “Bromodomain inhibitors” (AbbVie Inc., priority 2016, dated 2020).

Columns and labels:
[1] = target: BRD4 (BDII_E352-M457) (Homo sapiens (Human), UniProt O60885); test: TR-FRET bromodomain binding assay, BRD4 BDII; conditions: mean Ki, calculated from IC50, probe Kd and probe concentration
Summary of the method: (§1)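 His-tagged BRD4 BDI (12 nM, with 100 nM Alexa647 BET-inhibitor probe) or BDII (4 nM, 30 nM probe), plus 1 nM Eu-anti-His antibody, in pH 6.0 phosphate buffer with 2% DMSO. Equilibrated 1 h at room temperature and read by TR-FRET. IC50 from a 4-parameter fit was converted to Ki using probe Kd and probe concentration.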

[2] = target: BRD4 (BDI_K57-E168) (Homo sapiens (Human), UniProt O60885); test: TR-FRET bromodomain binding assay, BRD4 BDI; conditions: mean Ki, calculated from IC50, probe Kd and probe concentration
Summary of the method: as §1

Row | Ki [1] | Ki [2] | Compound
1 | 1.6 nM | 271 nM | CCNC(=O)c1cc2c(-c3cc(C(C)(C)O)cnc3Oc3c(C)ccc(F)c3C)cn(C)c(=O)c2[nH]1 [Example 91, N-ethyl-4-[2-(3-fluoro-2,6-dimethylphenoxy)-5-(2-hydroxypropan-2-yl)pyridin-3-yl]-6-methyl-7-oxo-6,7-dihydro-1H-pyrrolo[2,3-c]pyridine-2-carboxamide]
2 | 1.1 nM | 259 nM | CCNC(=O)c1cc2c(-c3cc(C(C)(O)CCO)ccc3Oc3c(C)cccc3C)cn(C)c(=O)c2[nH]1 (stereo not shown) [Example 67, 4-[5-(2,4-dihydroxybutan-2-yl)-2-(2,6-dimethylphenoxy)phenyl]-N-ethyl-6-methyl-7-oxo-6,7-dihydro-1H-pyrrolo[2,3-c]pyridine-2-carboxamide]
3 | 3.7 nM | 236 nM | CCNC(=O)c1cc2c(-c3cc(C(C)(C)O)cnc3Oc3c(C)cc(Cl)cc3C)cn(C)c(=O)c2[nH]1 [Example 94, 4-[2-(4-chloro-2,6-dimethylphenoxy)-5-(2-hydroxypropan-2-yl)pyridin-3-yl]-N-ethyl-6-methyl-7-oxo-6,7-dihydro-1H-pyrrolo[2,3-c]pyridine-2-carboxamide]
4 | 2.2 nM | 346 nM | CCNC(=O)c1cc2c(-c3cc(C(C)(O)CO)ccc3Oc3c(C)cc(F)cc3Cl)cn(C)c(=O)c2[nH]1 (stereo not shown) [Example 119, 4-[2-(2-chloro-4-fluoro-6-methylphenoxy)-5-(1,2-dihydroxypropan-2-yl)phenyl]-N-ethyl-6-methyl-7-oxo-6,7-dihydro-1H-pyrrolo[2,3-c]pyridine-2-carboxamide]
5 | 1.2 nM | 375 nM | CCNC(=O)c1cc2c(-c3cc(C(C)(C)O)ccc3Oc3c(C)ccc(F)c3C)cn(C)c(=O)c2[nH]1 [Example 104, N-ethyl-4-[2-(3-fluoro-2,6-dimethylphenoxy)-5-(2-hydroxypropan-2-yl)phenyl]-6-methyl-7-oxo-6,7-dihydro-1H-pyrrolo[2,3-c]pyridine-2-carboxamide]
6 | 3 nM | 551 nM | CCNC(=O)c1cc2c(-c3cc(C(C)(C)O)ccc3Oc3c(C)ccnc3C)cn(C)c(=O)c2[nH]1 [Example 74, 4-{2-[(2,4-dimethylpyridin-3-yl)oxy]-5-(2-hydroxypropan-2-yl)phenyl}-N-ethyl-6-methyl-7-oxo-6,7-dihydro-1H-pyrrolo[2,3-c]pyridine-2-carboxamide]
7 | 1.1 nM | 43 nM | CCNC(=O)c1cc2c(-c3cc(C(C)(C)O)ccc3Oc3c(C)cccc3F)cn(C)c(=O)c2[nH]1 [Example 81, N-ethyl-4-[2-(2-fluoro-6-methylphenoxy)-5-(2-hydroxypropan-2-yl)phenyl]-6-methyl-7-oxo-6,7-dihydro-1H-pyrrolo[2,3-c]pyridine-2-carboxamide]
8 | 3.5 nM | 140 nM | Cc1cc(C(C)(C)O)cc(C)c1Oc1ncc(C(C)(C)O)cc1-c1cn(C)c(=O)c2[nH]c(C(=O)NC(C)(C)C)cc12 [Example 125, N-tert-butyl-4-{5-(2-hydroxypropan-2-yl)-2-[4-(2-hydroxypropan-2-yl)-2,6-dimethylphenoxy]pyridin-3-yl}-6-methyl-7-oxo-6,7-dihydro-1H-pyrrolo[2,3-c]pyridine-2-carboxamide]
9 | 5.2 nM | 486 nM | CCNC(=O)c1cc2c(-c3cc(C(O)(C(F)(F)F)C(F)(F)F)cnc3Oc3c(C)cc(F)cc3C)cn(C)c(=O)c2[nH]1 [Example 80, N-ethyl-4-[2-(4-fluoro-2,6-dimethylphenoxy)-5-(1,1,1,3,3,3-hexafluoro-2-hydroxypropan-2-yl)pyridin-3-yl]-6-methyl-7-oxo-6,7-dihydro-1H-pyrrolo[2,3-c]pyridine-2-carboxamide]
10 | 1.7 nM | 269 nM | CCNC(=O)c1cc2c(-c3cc(C(C)(C)O)cnc3Oc3c(C)cc(C(C)(C)O)cc3C)cn(C)c(=O)c2[nH]1 [Example 124, N-ethyl-4-{5-(2-hydroxypropan-2-yl)-2-[4-(2-hydroxypropan-2-yl)-2,6-dimethylphenoxy]pyridin-3-yl}-6-methyl-7-oxo-6,7-dihydro-1H-pyrrolo[2,3-c]pyridine-2-carboxamide]
11 | 10.4 nM | 1390 nM | Cc1cc(F)cc(Cl)c1Oc1ccc(C(C)(O)CO)cc1-c1cn(C)c(=O)c2[nH]c(C(=O)NC(C)(C)C)cc12 (stereo not shown) [Example 118, N-tert-butyl-4-[2-(2-chloro-4-fluoro-6-methylphenoxy)-5-(1,2-dihydroxypropan-2-yl)phenyl]-6-methyl-7-oxo-6,7-dihydro-1H-pyrrolo[2,3-c]pyridine-2-carboxamide]

Further lines, the compound ahead of its results:

Row | Compound | Ki [1] | Ki [2]
12 | CCNC(=O)c1cc2c(-c3cc(C(C)(C)O)ccc3C3=CCC(C)CC3)cn(C)c(=O)c2[nH]1 (stereo not shown) [Example 113, N-ethyl-4-[4-(2-hydroxypropan-2-yl)-4′-methyl[2′,3′,4′,5′-tetrahydro[1,1′-biphenyl]]-2-yl]-6-methyl-7-oxo-6,7-dihydro-1H-pyrrolo[2,3-c]pyridine-2-carboxamide] | 1.5 nM | 98 nM
13 | CCNC(=O)c1cc2c(-c3cc(C(C)(O)c4ccc(F)cc4)cnc3Oc3c(C)cccc3C)cn(C)c(=O)c2[nH]1 (stereo not shown) [Example 17, 4-{2-(2,6-dimethylphenoxy)-5-[1-(4-fluorophenyl)-1-hydroxyethyl]pyridin-3-yl}-N-ethyl-6-methyl-7-oxo-6,7-dihydro-1H-pyrrolo[2,3-c]pyridine-2-carboxamide] | 3 nM | 467 nM
14 | Cc1cccc(C)c1Oc1ncc(C(C)(C)O)cc1-c1cn(C)c(=O)c2[nH]c(C(=O)NC3(C)CC3(F)F)cc12 (stereo not shown) [Example 34, N-(2,2-difluoro-1-methylcyclopropyl)-4-[2-(2,6-dimethylphenoxy)-5-(2-hydroxypropan-2-yl)pyridin-3-yl]-6-methyl-7-oxo-6,7-dihydro-1H-pyrrolo[2,3-c]pyridine-2-carboxamide] | 5.1 nM | 729 nM
15 | Cc1cccc(C(F)(F)F)c1Oc1ncc(C(C)(C)O)cc1-c1cn(C)c(=O)c2[nH]c(C(=O)NC(C)(C)C)cc12 [Example 45, N-tert-butyl-4-{5-(2-hydroxypropan-2-yl)-2-[2-methyl-6-(trifluoromethyl)phenoxy]pyridin-3-yl}-6-methyl-7-oxo-6,7-dihydro-1H-pyrrolo[2,3-c]pyridine-2-carboxamide] | 12.5 nM | 1080 nM
16 | CCNC(=O)c1cc2c(-c3cc(C(C)(C)O)cnc3Oc3c(C)cccc3C(F)(F)F)cn(C)c(=O)c2[nH]1 [Example 48, N-ethyl-4-{5-(2-hydroxypropan-2-yl)-2-[2-methyl-6-(trifluoromethyl)phenoxy]pyridin-3-yl}-6-methyl-7-oxo-6,7-dihydro-1H-pyrrolo[2,3-c]pyridine-2-carboxamide] | 6 nM | 1600 nM
17 | Cc1cc(F)cc(C)c1Oc1ncc(C(C)(C)O)cc1-c1cn(C)c(=O)c2[nH]c(C(=O)NC3(C)CC3(F)F)cc12 (stereo not shown) [Example 61, N-(2,2-difluoro-1-methylcyclopropyl)-4-[2-(4-fluoro-2,6-dimethylphenoxy)-5-(2-hydroxypropan-2-yl)pyridin-3-yl]-6-methyl-7-oxo-6,7-dihydro-1H-pyrrolo[2,3-c]pyridine-2-carboxamide] | 12 nM | 1580 nM
18 | Cc1cccc(Cl)c1Oc1ccc(C(C)(C)O)cc1-c1cn(C)c(=O)c2[nH]c(C(=O)NC3(C)CC3(F)F)cc12 (stereo not shown) [Example 42, 4-[2-(2-chloro-6-methylphenoxy)-5-(2-hydroxypropan-2-yl)phenyl]-N-(2,2-difluoro-1-methylcyclopropyl)-6-methyl-7-oxo-6,7-dihydro-1H-pyrrolo[2,3-c]pyridine-2-carboxamide] | 5.7 nM | 704 nM
19 | CCNC(=O)c1cc2c(-c3cc(C(O)(CC)c4ccc(F)cc4)cnc3Oc3c(C)cccc3C)cn(C)c(=O)c2[nH]1 (stereo not shown) [Example 9, 4-{2-(2,6-dimethylphenoxy)-5-[1-(4-fluorophenyl)-1-hydroxypropyl]pyridin-3-yl}-N-ethyl-6-methyl-7-oxo-6,7-dihydro-1H-pyrrolo[2,3-c]pyridine-2-carboxamide] | 3.8 nM | 601 nM
20 | Cc1cc(F)cc(C)c1Oc1ccc(C(C)(C)O)cc1-c1cn(C)c(=O)c2[nH]c(C(=O)NC(C)(C)C)cc12 [Example 36, N-tert-butyl-4-[2-(4-fluoro-2,6-dimethylphenoxy)-5-(2-hydroxypropan-2-yl)phenyl]-6-methyl-7-oxo-6,7-dihydro-1H-pyrrolo[2,3-c]pyridine-2-carboxamide] | 3.4 nM | 579 nM
21 | CCNC(=O)c1cc2c(-c3cc(C(C)(C)O)ccc3C3=CCC(F)(F)CC3)cn(C)c(=O)c2[nH]1 [Example 111, 4-[4′,4′-difluoro-4-(2-hydroxypropan-2-yl)[2′,3′,4′,5′-tetrahydro[1,1′-biphenyl]]-2-yl]-N-ethyl-6-methyl-7-oxo-6,7-dihydro-1H-pyrrolo[2,3-c]pyridine-2-carboxamide] | 1.4 nM | 150 nM
22 | Cc1cc(F)cc(Cl)c1Oc1ccc(C(C)(C)O)cc1-c1cn(C)c(=O)c2[nH]c(C(=O)NC(C)(C)C(F)(F)F)cc12 [Example 57, 4-[2-(2-chloro-4-fluoro-6-methylphenoxy)-5-(2-hydroxypropan-2-yl)phenyl]-6-methyl-7-oxo-N-(1,1,1-trifluoro-2-methylpropan-2-yl)-6,7-dihydro-1H-pyrrolo[2,3-c]pyridine-2-carboxamide] | 17.5 nM | 2890 nM
23 | Cc1cc(F)cc(Cl)c1Oc1ncc(C(C)(C)O)cc1-c1cn(C)c(=O)c2[nH]c(C(=O)NC3(C)CC3(F)F)cc12 (stereo not shown) [Example 62, 4-[2-(2-chloro-4-fluoro-6-methylphenoxy)-5-(2-hydroxypropan-2-yl)pyridin-3-yl]-N-(2,2-difluoro-1-methylcyclopropyl)-6-methyl-7-oxo-6,7-dihydro-1H-pyrrolo[2,3-c]pyridine-2-carboxamide] | 10.2 nM | 1110 nM
